Test results from PubChem BioAssay AID1259407 (Chemical Carcinogenesis Research Information System (CCRIS), 2018).
Active and inactive are the calls of the source. The rule behind the calls is not given here.

System: CCRIS mutagenicity, Ames/micronucleus/aberration tests
Assay: CCRIS mutagenicity studies
[1] = Test System: AMES SALMONELLA TYPHIMURIUM, Strain/Indicator: TA98, Metabolic Activation: NONE, Method: STANDARD PLATE
[2] = Test System: AMES SALMONELLA TYPHIMURIUM, Strain/Indicator: TA100, Metabolic Activation: NONE, Method: STANDARD PLATE
[3] = Test System: AMES SALMONELLA TYPHIMURIUM, Strain/Indicator: TA1537, Metabolic Activation: NONE, Method: STANDARD PLATE
[4] = Test System: AMES SALMONELLA TYPHIMURIUM, Strain/Indicator: TA98, Metabolic Activation: RAT, LIVER, S-9, AROCLOR 1254, Method: STANDARD PLATE
[5] = Test System: AMES SALMONELLA TYPHIMURIUM, Strain/Indicator: TA100, Metabolic Activation: RAT, LIVER, S-9, AROCLOR 1254, Method: STANDARD PLATE

Measured: mutagenic call

Cc1cc([N+](=O)[O-])c(C)c2c1[nH]c1ccc([N+](=O)[O-])cc12
active: [1] active; positive | Test System: AMES SALMONELLA TYPHIMURIUM, Strain/Indicator: TA98, Metabolic Activation: RAT LIVER S-9, AROCLOR 1254, Method: STANDARD PLATE active; positive | [2] active; positive | Test System: AMES SALMONELLA TYPHIMURIUM, Strain/Indicator: TA100, Metabolic Activation: RAT LIVER S-9, AROCLOR 1254, Method: STANDARD PLATE active; positive | [3] active; positive | Test System: AMES SALMONELLA TYPHIMURIUM, Strain/Indicator: TA1537, Metabolic Activation: RAT LIVER S-9, AROCLOR 1254, Method: STANDARD PLATE active; positive | Test System: AMES SALMONELLA TYPHIMURIUM, Strain/Indicator: TA1977, Metabolic Activation: NONE, Method: STANDARD PLATE active; positive | Test System: AMES SALMONELLA TYPHIMURIUM, Strain/Indicator: TA1977, Metabolic Activation: RAT LIVER S-9, AROCLOR 1254, Method: STANDARD PLATE active; positive

CO[C@@H]1[C@H](O)C[C@@H](O[C@@H]2C[C@H](Oc3cc4cc5c(c(O)c4c(O)c3C)C(=O)[C@@H](O[C@H]3C[C@@H](O[C@H]4C[C@@H](O[C@H]6C[C@](C)(O)[C@@H](OC(C)=O)[C@H](C)O6)[C@H](O)[C@@H](C)O4)[C@H](O)[C@@H](C)O3)[C@H]([C@H](OC)C(=O)[C@@H](O)[C@@H](C)O)C5)O[C@H](C)[C@@H]2OC(C)=O)O[C@@H]1C
inactive: [1] inactive; negative | [2] inactive; negative | Test System: E. COLI, Strain/Indicator: WP2 (HCR), Metabolic Activation: NONE, Method: STANDARD PLATE inactive; negative
active: Test System: CHINESE HAMSTER OVARY, Strain/Indicator: CHO (HGPRT)/6-THIOGUANINE, Metabolic Activation: NONE, Method: PREINCUBATION active; positive

ClC(Cl)(Cl)Br
inactive: [4] inactive; negative | [2] inactive; negative | [5] inactive; negative
active: Test System: AMES SALMONELLA TYPHIMURIUM, Strain/Indicator: TA97, Metabolic Activation: NONE, Method: STANDARD PLATE active; positive | Test System: AMES SALMONELLA TYPHIMURIUM, Strain/Indicator: TA97, Metabolic Activation: RAT, LIVER, S-9, AROCLOR 1254, Method: STANDARD PLATE active; positive | [1] active; positive | Test System: AMES SALMONELLA TYPHIMURIUM, Strain/Indicator: TA104, Metabolic Activation: NONE, Method: STANDARD PLATE active; positive | Test System: AMES SALMONELLA TYPHIMURIUM, Strain/Indicator: TA104, Metabolic Activation: RAT, LIVER, S-9, AROCLOR 1254, Method: STANDARD PLATE active; positive

OCc1ccc(Cl)cc1
inactive: [2] inactive; negative

C=C(C)C(=O)OCCOC(=O)NCCC(C)CC(C)(C)CNC(=O)OCCOC(=O)C(=C)C (stereo not given)
inactive: Test System: AMES SALMONELLA TYPHIMURIUM, Strain/Indicator: TA97A, Metabolic Activation: NONE, Method: STANDARD PLATE inactive; negative | Test System: AMES SALMONELLA TYPHIMURIUM, Strain/Indicator: TA97A, Metabolic Activation: RAT LIVER S-9, PHENOBARBITAL AND BETA-NAPHTHAFLAVONE, Method: STANDARD PLATE inactive; negative | [1] inactive; negative | Test System: AMES SALMONELLA TYPHIMURIUM, Strain/Indicator: TA98, Metabolic Activation: RAT LIVER S-9, PHENOBARBITAL AND BETA-NAPHTHAFLAVONE, Method: STANDARD PLATE inactive; negative | [2] inactive; negative | Test System: AMES SALMONELLA TYPHIMURIUM, Strain/Indicator: TA100, Metabolic Activation: RAT LIVER S-9, PHENOBARBITAL AND BETA-NAPHTHAFLAVONE, Method: STANDARD PLATE inactive; negative | Test System: AMES SALMONELLA TYPHIMURIUM, Strain/Indicator: TA102, Metabolic Activation: NONE, Method: STANDARD PLATE inactive; negative | Test System: AMES SALMONELLA TYPHIMURIUM, Strain/Indicator: TA102, Metabolic Activation: RAT LIVER S-9, PHENOBARBITAL AND BETA-NAPHTHAFLAVONE, Method: STANDARD PLATE inactive; negative | Test System: CHINESE HAMSTER V-79, Strain/Indicator: V79 (HPRT)/6-THIOGUANINE, Metabolic Activation: NONE inactive; negative

O=C/C=C/C=C\c1ccc([N+](=O)[O-])cc1
inactive: Test System: Mouse lymphoma, Strain/Indicator: L5178Y (tk+/tk-), Metabolic Activation: Rat, Liver, S-9, Aroclor 1254, Method: Suspension/plate inactive; negative
active: Test System: AMES SALMONELLA TYPHIMURIUM, Strain/Indicator: 98(NR), Metabolic Activation: HAMSTER, LIVER, S-9, AROCLOR 1254, Method: STANDARD PLATE active; positive | Test System: AMES SALMONELLA TYPHIMURIUM, Strain/Indicator: 98(NR), Metabolic Activation: NONE, Method: STANDARD PLATE active; positive | Test System: AMES SALMONELLA TYPHIMURIUM, Strain/Indicator: 98(NR), Metabolic Activation: RAT, LIVER, S-9, AROCLOR 1254, Method: STANDARD PLATE active; positive | Test System: AMES SALMONELLA TYPHIMURIUM, Strain/Indicator: 100(NR), Metabolic Activation: HAMSTER, LIVER, S-9, AROCLOR 1254, Method: STANDARD PLATE active; positive | Test System: AMES SALMONELLA TYPHIMURIUM, Strain/Indicator: 100(NR), Metabolic Activation: NONE, Method: STANDARD PLATE active; positive | Test System: AMES SALMONELLA TYPHIMURIUM, Strain/Indicator: 100(NR), Metabolic Activation: RAT, LIVER, S-9, AROCLOR 1254, Method: STANDARD PLATE active; positive | Test System: AMES SALMONELLA TYPHIMURIUM, Strain/Indicator: TA98, Metabolic Activation: HAMSTER, LIVER, S-9, AROCLOR 1254, Method: STANDARD PLATE active; positive | [1] active; positive | [4] active; positive | Test System: AMES SALMONELLA TYPHIMURIUM, Strain/Indicator: TA100, Metabolic Activation: HAMSTER, LIVER, S-9, AROCLOR 1254, Method: STANDARD PLATE active; positive | [2] active; positive | [5] active; positive | Test System: AMES SALMONELLA TYPHIMURIUM, Strain/Indicator: TA1535, Metabolic Activation: HAMSTER, LIVER, S-9, AROCLOR 1254, Method: STANDARD PLATE active; positive | Test System: AMES SALMONELLA TYPHIMURIUM, Strain/Indicator: TA1535, Metabolic Activation: NONE, Method: STANDARD PLATE active; positive | Test System: AMES SALMONELLA TYPHIMURIUM, Strain/Indicator: TA1535, Metabolic Activation: RAT, LIVER, S-9, AROCLOR 1254, Method: STANDARD PLATE active; positive | [3] active; positive | Test System: AMES SALMONELLA TYPHIMURIUM, Strain/Indicator: TA1537, Metabolic Activation: RAT, LIVER, S-9, AROCLOR 1254, Method: STANDARD PLATE active; positive | Test System: Mouse lymphoma, Strain/Indicator: L5178Y (tk+/tk-), Metabolic Activation: None, Method: Suspension/plate active; equivocal (previous evaluation positive)

O=[N+]([O-])c1cc2cccc3c4c(c5cccc1c5c23)CCCC4
active: Test System: AMES SALMONELLA TYPHIMURIUM, Strain/Indicator: TA98, Metabolic Activation: NONE', Method: STANDARD PLATE active; positive | [2] active; positive

Cc1nc2c(ccc3ccc4ccc(O)cc4c32)[nH]1
active: [4] active; positive | Test System: AMES SALMONELLA TYPHIMURIUM, Strain/Indicator: TA98, Metabolic Activation: RAT, LIVER, S-9, AROCLOR, Method: STANDARD PLATE active; positive

Nc1cc(Cl)c(Cl)c(Cl)c1
inactive: [1] inactive; negative | [4] inactive; negative | [2] inactive; negative | [5] inactive; negative

O=NN1CCOC(O)C1 (stereo not given)
active: Test System: AMES SALMONELLA TYPHIMURIUM, Strain/Indicator: TA100, Metabolic Activation: NONE, Method: PREINCUBATION active; positive | Test System: AMES SALMONELLA TYPHIMURIUM, Strain/Indicator: TA1535, Metabolic Activation: NONE, Method: PREINCUBATION active; positive | Test System: AMES SALMONELLA TYPHIMURIUM, Strain/Indicator: TA1535, Metabolic Activation: RAT, LIVER, S-9, AROCLOR 1254, Method: PREINCUBATION active; positive
